Laboratory results published in the NIST ThermoML archive (doi:10.1016/j.jct.2013.10.013).
Numbers after ± are expanded uncertainties.

Assays:
[1] = 283.15 K; 101 kPa; Liquid; Vibrating tube method
[2] = xn = mol fraction of the nth substance listed; conditions: 101 kPa, Liquid, Vibrating tube method

SMILES: O [water]
- mass density [1]: 999.699 ± 0.2 kg/m3

SMILES: CC(C)NCCO [2-isopropylaminoethanol] + O
- mass density ([2]; 283.15 K, x1 = 0.00785): 998.279 ± 0.2 kg/m3
- mass density ([2]; 283.15 K, x1 = 0.00993): 997.915 ± 0.2 kg/m3
- mass density ([2]; 283.15 K, x1 = 0.0147): 997.627 ± 0.2 kg/m3
- mass density ([2]; 283.15 K, x1 = 0.02052): 997.186 ± 0.2 kg/m3
- mass density ([2]; 283.15 K, x1 = 0.02925): 997.048 ± 0.2 kg/m3
- mass density ([2]; 283.15 K, x1 = 0.04009): 997.046 ± 0.2 kg/m3
- mass density ([2]; 283.15 K, x1 = 0.04971): 996.952 ± 0.2 kg/m3
- mass density ([2]; 283.15 K, x1 = 0.0589): 996.873 ± 0.2 kg/m3
- mass density ([2]; 283.15 K, x1 = 0.06926): 996.18 ± 0.2 kg/m3
- mass density ([2]; 283.15 K, x1 = 0.08132): 994.687 ± 0.2 kg/m3
- mass density ([2]; 288.15 K, x1 = 0.00785): 997.569 ± 0.2 kg/m3
- mass density ([2]; 288.15 K, x1 = 0.00993): 997.164 ± 0.2 kg/m3
- mass density ([2]; 288.15 K, x1 = 0.0147): 996.747 ± 0.2 kg/m3
- mass density ([2]; 288.15 K, x1 = 0.02052): 996.156 ± 0.2 kg/m3
- mass density ([2]; 288.15 K, x1 = 0.02925): 995.726 ± 0.2 kg/m3
- mass density ([2]; 288.15 K, x1 = 0.04009): 995.322 ± 0.2 kg/m3
- mass density ([2]; 288.15 K, x1 = 0.04971): 994.86 ± 0.2 kg/m3
- mass density ([2]; 288.15 K, x1 = 0.0589): 994.475 ± 0.2 kg/m3
- mass density ([2]; 288.15 K, x1 = 0.06926): 993.417 ± 0.2 kg/m3
- mass density ([2]; 288.15 K, x1 = 0.08132): 991.662 ± 0.2 kg/m3
- mass density ([2]; 293.15 K, x1 = 0.00785): 996.602 ± 0.2 kg/m3
- mass density ([2]; 293.15 K, x1 = 0.00993): 996.129 ± 0.2 kg/m3
- mass density ([2]; 293.15 K, x1 = 0.0147): 995.555 ± 0.2 kg/m3
- mass density ([2]; 293.15 K, x1 = 0.02052): 994.798 ± 0.2 kg/m3
- mass density ([2]; 293.15 K, x1 = 0.02925): 994.178 ± 0.2 kg/m3
- mass density ([2]; 293.15 K, x1 = 0.04009): 993.399 ± 0.2 kg/m3
- mass density ([2]; 293.15 K, x1 = 0.04971): 992.61 ± 0.2 kg/m3
- mass density ([2]; 293.15 K, x1 = 0.0589): 991.925 ± 0.2 kg/m3
- mass density ([2]; 293.15 K, x1 = 0.06926): 990.602 ± 0.2 kg/m3
- mass density ([2]; 293.15 K, x1 = 0.08132): 988.598 ± 0.2 kg/m3
- mass density ([2]; 298.15 K, x1 = 0.00785): 995.343 ± 0.2 kg/m3
- mass density ([2]; 298.15 K, x1 = 0.00993): 994.859 ± 0.2 kg/m3
- mass density ([2]; 298.15 K, x1 = 0.0147): 994.252 ± 0.2 kg/m3
- mass density ([2]; 298.15 K, x1 = 0.02052): 993.36 ± 0.2 kg/m3
- mass density ([2]; 298.15 K, x1 = 0.02925): 992.43 ± 0.2 kg/m3
- mass density ([2]; 298.15 K, x1 = 0.04009): 991.335 ± 0.2 kg/m3
- mass density ([2]; 298.15 K, x1 = 0.04971): 990.229 ± 0.2 kg/m3
- mass density ([2]; 298.15 K, x1 = 0.0589): 989.248 ± 0.2 kg/m3
- mass density ([2]; 298.15 K, x1 = 0.06926): 987.663 ± 0.2 kg/m3
- mass density ([2]; 298.15 K, x1 = 0.08132): 985.438 ± 0.2 kg/m3
- mass density ([2]; 303.15 K, x1 = 0.00785): 993.837 ± 0.2 kg/m3
- mass density ([2]; 303.15 K, x1 = 0.00993): 993.31 ± 0.2 kg/m3
- mass density ([2]; 303.15 K, x1 = 0.0147): 992.597 ± 0.2 kg/m3
- mass density ([2]; 303.15 K, x1 = 0.02052): 991.578 ± 0.2 kg/m3
- mass density ([2]; 303.15 K, x1 = 0.02925): 990.428 ± 0.2 kg/m3
- mass density ([2]; 303.15 K, x1 = 0.04009): 989.011 ± 0.2 kg/m3
- mass density ([2]; 303.15 K, x1 = 0.04971): 987.652 ± 0.2 kg/m3
- mass density ([2]; 303.15 K, x1 = 0.0589): 986.463 ± 0.2 kg/m3
- mass density ([2]; 303.15 K, x1 = 0.06926): 984.639 ± 0.2 kg/m3
- mass density ([2]; 303.15 K, x1 = 0.08132): 982.2 ± 0.2 kg/m3

SMILES: O [water] + CCCCOCCO
- mass density ([2]; 283.15 K, x2 = 0): 999.699 ± 0.2 kg/m3
